Data taken from patent publication US20250136606A1, “MODULATORS OF TRPML, THEIR COMPOSITIONS AND METHODS OF USE” (Caraway Therapeutics, Inc., priority 2021, published 2025).

Experiments:
Assay type in all cases: cell-based
Details in all cases: fluorescent calcium assay
TRPML2 = target: T1, TRPML2 (Homo sapiens, UniProt Q8IZK6); assay: Fluorescent TRPML2 assay (performed as for TRPML1, substituting the TRPML2 subtype)
T1 construct: expressed in transfected cells
T1 sequence (Q8IZK6 1-566): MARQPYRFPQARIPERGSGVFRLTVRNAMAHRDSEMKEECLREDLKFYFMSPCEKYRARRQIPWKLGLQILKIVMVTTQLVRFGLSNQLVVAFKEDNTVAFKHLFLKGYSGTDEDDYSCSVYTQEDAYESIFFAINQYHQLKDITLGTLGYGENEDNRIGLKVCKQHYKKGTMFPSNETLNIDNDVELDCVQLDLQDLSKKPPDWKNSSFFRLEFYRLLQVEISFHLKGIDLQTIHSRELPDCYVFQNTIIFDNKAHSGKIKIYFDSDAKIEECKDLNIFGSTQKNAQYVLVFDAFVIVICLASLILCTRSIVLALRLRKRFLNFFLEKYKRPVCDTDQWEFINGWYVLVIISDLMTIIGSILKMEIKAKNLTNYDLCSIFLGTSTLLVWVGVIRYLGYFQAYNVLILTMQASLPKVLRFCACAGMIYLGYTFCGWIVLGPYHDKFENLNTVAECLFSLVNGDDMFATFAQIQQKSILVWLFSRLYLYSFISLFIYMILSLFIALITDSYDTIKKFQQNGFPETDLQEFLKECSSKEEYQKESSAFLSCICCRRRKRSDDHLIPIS
Summary of the method: (§1)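 Doxycycline-induced (0.5 ug/mL) HEK-293 Trex cells stably expressing surface-directed mutant channel were loaded with 1 micromolar Fluo4-AM, resuspended in Ringer's with 10 mM calcium and added to compound plates. Fluorescence (ex 480, em 540 nm) gave percent activity versus on-plate controls; EC50 by non-linear regression.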

TRPML3 = target: T2, TRPML3 (Homo sapiens, UniProt Q8TDD5); assay: Fluorescent TRPML3 assay (performed as for TRPML1, substituting the TRPML3 subtype)
T2 construct: expressed in transfected cells
T2 sequence (Q8TDD5 1-553): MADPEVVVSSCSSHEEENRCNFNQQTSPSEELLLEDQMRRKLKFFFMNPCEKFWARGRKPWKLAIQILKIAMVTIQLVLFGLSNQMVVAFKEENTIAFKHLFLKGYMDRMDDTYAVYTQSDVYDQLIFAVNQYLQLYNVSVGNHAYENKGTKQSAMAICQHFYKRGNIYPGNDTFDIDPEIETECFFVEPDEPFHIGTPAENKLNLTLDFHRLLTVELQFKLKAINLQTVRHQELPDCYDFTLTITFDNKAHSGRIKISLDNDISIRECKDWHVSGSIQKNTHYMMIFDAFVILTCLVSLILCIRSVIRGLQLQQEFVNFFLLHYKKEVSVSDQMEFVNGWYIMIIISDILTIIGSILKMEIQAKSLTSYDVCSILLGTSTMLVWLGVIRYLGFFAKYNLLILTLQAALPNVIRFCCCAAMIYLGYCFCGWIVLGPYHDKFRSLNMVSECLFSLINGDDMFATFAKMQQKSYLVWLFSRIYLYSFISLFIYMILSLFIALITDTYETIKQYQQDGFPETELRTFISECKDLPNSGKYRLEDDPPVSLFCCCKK
Summary of the method: as §1

TRPML1 = TRPML1 (Homo sapiens, UniProt Q9GZU1); assay: Fluorescent TRPML1 assay (Fluo4-AM calcium fluorescence in doxycycline-induced HEK-293 Trex cells)
Summary of the method: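 HEK-293 Trex cells stably carrying human TRPML1 (surface-trafficking mutant) were induced overnight with 0.5 ug/mL doxycycline, loaded with 1 micromolar Fluo4-AM, and suspended in Ringer's with 10 mM calcium. Compounds at 20 micromolar to 6 nanomolar final, half-log steps, triplicate; fluorescence 480/540 nm gave percent activity versus controls and EC50 by non-linear regression.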

TRPML1, sequence (Q9GZU1 whole entry L15A/L16A/L577A/L578A, form open): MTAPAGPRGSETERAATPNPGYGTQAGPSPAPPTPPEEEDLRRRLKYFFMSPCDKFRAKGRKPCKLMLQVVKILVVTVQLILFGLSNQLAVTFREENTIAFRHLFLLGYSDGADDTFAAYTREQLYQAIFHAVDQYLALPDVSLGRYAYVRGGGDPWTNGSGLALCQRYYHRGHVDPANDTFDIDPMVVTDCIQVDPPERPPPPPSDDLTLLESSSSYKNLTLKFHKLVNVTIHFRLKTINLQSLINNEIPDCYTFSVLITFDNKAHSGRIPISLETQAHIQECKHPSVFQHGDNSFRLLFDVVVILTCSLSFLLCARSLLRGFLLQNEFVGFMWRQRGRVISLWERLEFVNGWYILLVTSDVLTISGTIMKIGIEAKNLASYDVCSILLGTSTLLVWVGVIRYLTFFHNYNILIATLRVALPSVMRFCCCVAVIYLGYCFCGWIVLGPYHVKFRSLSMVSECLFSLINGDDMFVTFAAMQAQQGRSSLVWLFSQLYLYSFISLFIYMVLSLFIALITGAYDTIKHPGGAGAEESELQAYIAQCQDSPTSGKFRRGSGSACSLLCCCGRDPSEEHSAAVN

Structure (SMILES)	EC50 (TRPML2)	EC50 (TRPML3)	EC50 (TRPML1)
CCN(CC)c1cn(-c2cc(C#N)ccn2)c2ncnc(N3CCN(C(=O)OC(C)(C)C)[C@H](C)C3)c12 [Compound 425, tert-butyl (R)-4-(7-(4-cyanopyridin-2-yl)-5-(diethylamino)-7H-pyrrolo[2,3-d]pyrimidin-4-yl)-2-methylpiperazine-1-carboxylate]	0.1 to 0.5 µM	< 0.1 µM	< 0.1 µM
C[C@H]1CN(C(=O)OC(C)(C)C)CCN1c1ncnc2c1c(N(C)C)cn2-c1cc(C#N)ccn1 [Compound 426, tert-butyl (S)-4-(7-(4-cyanopyridin-2-yl)-5-(dimethylamino)-7H-pyrrolo[2,3-d]pyrimidin-4-yl)-3-methylpiperazine-1-carboxylate]	< 0.1 µM	< 0.1 µM	< 0.1 µM
C[C@@H]1CN(c2ncnc3c2c(N(C)C)cn3-c2cc(C#N)ccn2)CCN1C(=O)OC(C)(C)C [Compound 427, tert-Butyl (R)-4-(7-(4-cyanopyridin-2-yl)-5-(dimethylamino)-7H-pyrrolo[2,3-d]pyrimidin-4-yl)-2-methylpiperazine-1-carboxylate]	< 0.1 µM	< 0.1 µM	< 0.1 µM
C[C@H]1CN(C(=O)OC(C)(C)C)CCN1c1ncnc2c1c(-c1ccccc1F)cn2-c1ncc(C#N)s1 [Compound 428, tert-butyl (S)-4-(7-(5-cyanothiazol-2-yl)-5-(2-fluorophenyl)-7H-pyrrolo[2,3-d]pyrimidin-4-yl)-3-methylpiperazine-1-carboxylate]	< 0.1 µM	< 0.1 µM	< 0.1 µM
CC(C)(C)OC(=O)N1CCN(c2ncnc3c2c(C2CC2)cn3-c2cc(C#N)ccn2)C2(CC2)C1 [Compound 429, tert-butyl 4-(7-(4-cyanopyridin-2-yl)-5-cyclopropyl-7H-pyrrolo[2,3-d]pyrimidin-4-yl)-4,7-diazaspiro[2.5]octane-7-carboxylate]	< 0.1 µM	< 0.1 µM	< 0.1 µM
C[C@@H]1CN(c2ncnc3c2c(N(C)C)cn3-c2cccc(Cl)c2)CCN1C(=O)OC(C)(C)C [Compound 430, tert-butyl (R)-4-(7-(3-chlorophenyl)-5-(dimethylamino)-7H-pyrrolo[2,3-d]pyrimidin-4-yl)-2-methylpiperazine-1-carboxylate]	0.1 to 0.5 µM	< 0.1 µM	< 0.1 µM
C[C@H]1CN(C(=O)OC(C)(C)C)CCN1c1ncnc2c1c(C1CC1)cn2-c1cc(C#N)ncn1 [Compound 431, tert-butyl (S)-4-(7-(6-cyanopyrimidin-4-yl)-5-cyclopropyl-7H-pyrrolo[2,3-d]pyrimidin-4-yl)-3-methylpiperazine-1-carboxylate]	0.5 to 2 µM	< 0.1 µM	0.1 to 0.5 µM
C[C@H]1CN(C(=O)OC(C)(C)C)CCN1c1ncnc2c1c(C1CC1)cn2-c1nccc(C#N)n1 [Compound 432, tert-Butyl (S)-4-(7-(4-cyanopyrimidin-2-yl)-5-cyclopropyl-7H-pyrrolo[2,3-d]pyrimidin-4-yl)-3-methylpiperazine-1-carboxylate]	0.5 to 2 µM	< 0.1 µM	0.1 to 0.5 µM
C[C@H]1CN(C(=O)OC(C)(C)C)CCN1c1ncnc2c1c(-c1ccccc1F)cn2-c1nc(C#N)cs1 [Compound 433, tert-butyl (S)-4-(7-(4-cyanothiazol-2-yl)-5-(2-fluorophenyl)-7H-pyrrolo[2,3-d]pyrimidin-4-yl)-3-methylpiperazine-1-carboxylate]	0.5 to 2 µM	0.1 to 0.5 µM	0.1 to 0.5 µM

Second part, the compound after the results:

EC50 (TRPML2)	EC50 (TRPML3)	EC50 (TRPML1)	Structure (SMILES)
< 0.1 µM	< 0.1 µM	< 0.1 µM	C[C@@H]1CN(c2ncnc3c2c(-c2ccccc2F)cn3-c2ncc(C#N)s2)[C@@H](C)CN1C(=O)OC(C)(C)C [Compound 434, tert-butyl (2R,5S)-4-(7-(5-cyanothiazol-2-yl)-5-(2-fluorophenyl)-7H-pyrrolo[2,3-d]pyrimidin-4-yl)-2,5-dimethylpiperazine-1-carboxylate]
< 0.1 µM	< 0.1 µM	< 0.1 µM	CC(C)(C)OC(=O)N1CCN(c2ncnc3c2c(-c2ccccc2F)cn3-c2cc(C#N)ccn2)C2(CC2)C1 [Compound 435, tert-butyl 4-(7-(4-cyanopyridin-2-yl)-5-(2-fluorophenyl)-7H-pyrrolo[2,3-d]pyrimidin-4-yl)-4,7-diazaspiro[2.5]octane-7-carboxylate]
0.1 to 0.5 µM	< 0.1 µM	< 0.1 µM	C[C@H]1CN(C(=O)OC(C)(C)C(F)(F)F)CCN1c1ncnc2c1c(C1CCC1)cn2-c1cc(C#N)ccn1 [Compound 436, 1,1,1-trifluoro-2-methylpropan-2-yl(S)-4-(7-(4-cyanopyridin-2-yl)-5-cyclobutyl-7H-pyrrolo[2,3-d]pyrimidin-4-yl)-3-methylpiperazine-1-carboxylate]
< 0.1 µM	< 0.1 µM	< 0.1 µM	C[C@H]1CN(C(=O)OC(C)(C)C)CCN1c1ncnc2c1c(-c1ccccc1F)cn2-c1cc(C#N)ncn1 [Compound 437, tert-butyl (S)-4-(7-(6-cyanopyrimidin-4-yl)-5-(2-fluorophenyl)-7H-pyrrolo[2,3-d]pyrimidin-4-yl)-3-methylpiperazine-1-carboxylate]
0.5 to 2 µM	< 0.1 µM	< 0.1 µM	C[C@H]1CN(C(=O)OC(C)(C)C)CCN1c1ncnc2c1c(-c1ccccc1F)cn2-c1nccc(C#N)n1 [Compound 438, tert-butyl (S)-4-(7-(4-cyanopyrimidin-2-yl)-5-(2-fluorophenyl)-7H-pyrrolo[2,3-d]pyrimidin-4-yl)-3-methylpiperazine-1-carboxylate]
0.5 to 2 µM	< 0.1 µM	0.1 to 0.5 µM	C[C@H]1CN(C(=O)OC(C)(C)C)CCN1c1ncnc2c1c(C1CC1)cn2-c1cc(C#N)cnn1 [Compound 439, tert-butyl (S)-4-(7-(5-cyanopyridazin-3-yl)-5-cyclopropyl-7H-pyrrolo[2,3-d]pyrimidin-4-yl)-3-methylpiperazine-1-carboxylate]
> 2 µM	0.5 to 2 µM	> 2 µM	C[C@H]1CN(C(=O)OC(C)(C)C)CCN1c1ncnc2c1c(C1CC1)cn2-c1ncc(C#N)[nH]1 [Compound 440, tert-butyl (S)-4-(7-(5-cyano-1H-imidazol-2-yl)-5-cyclopropyl-7H-pyrrolo[2,3-d]pyrimidin-4-yl)-3-methylpiperazine-1-carboxylate]
> 2 µM	0.1 to 0.5 µM	0.1 to 0.5 µM	CCN(CC)c1cn(-c2cc(C#N)ccn2)c2ncnc(N3CCN(C(=O)OC(C)(C)C)CC3)c12 [Compound 441, tert-butyl 4-(7-(4-cyanopyridin-2-yl)-5-(diethylamino)-7H-pyrrolo[2,3-d]pyrimidin-4-yl)piperazine-1-carboxylate]
0.5 to 2 µM	< 0.1 µM	< 0.1 µM	C[C@H]1CN(C(=O)OC(C)(C)C)CCN1c1ncnc2c1c(N(C)C1CC1)cn2-c1cc(C#N)ccn1 [Compound 442, tert-butyl (S)-4-(7-(4-cyanopyridin-2-yl)-5-(cyclopropyl(methyl)amino)-7H-pyrrolo[2,3-d]pyrimidin-4-yl)-3-methylpiperazine-1-carboxylate]
< 0.1 µM	< 0.1 µM	< 0.1 µM	CC(C)N(C)c1cn(-c2cc(C#N)ccn2)c2ncnc(N3CCN(C(=O)OC(C)(C)C)C[C@@H]3C)c12 [Compound 443, tert-butyl (S)-4-(7-(4-cyanopyridin-2-yl)-5-(isopropyl(methyl)amino)-7H-pyrrolo[2,3-d]pyrimidin-4-yl)-3-methylpiperazine-1-carboxylate]
0.1 to 0.5 µM	< 0.1 µM	< 0.1 µM	Cc1cc(-n2cc(-c3ccccc3F)c3c(N4CCN(C(=O)OC(C)(C)C)C[C@@H]4C)ncnc32)cc(C#N)n1 [Compound 444, tert-butyl (S)-4-(7-(2-cyano-6-methylpyridin-4-yl)-5-(2-fluorophenyl)-7H-pyrrolo[2,3-d]pyrimidin-4-yl)-3-methylpiperazine-1-carboxylate]
